Assay results: patent US8232299B2, “Phthalimide derivatives that influence cellular vesicular systems, pharmaceutical compositions, and use thereof” (Avidin Kft., priority 2007, dated 2012)

Key:
[1] = tested on: MCF7 (Human breast adenocarcinoma); assay: cytotoxic effect on breast carcinoma cell line, MTS test, 24 hours; type: cell-based; conditions: 24 hours incubation
Protocol: (§1) In these experiments HepG2 (human hepatocellular carcinoma) and MCF7 (Human breast adenocarcinoma) cells were used. They were cultured in the following media: For HepG2 Dulbecco's Modified Eagle Medium (D-MEM) (high glucose) (Gibco BRL, Carlsbad, Calif., USA), penicillin (50 IU/ml)-streptomycin ([…]), 10% fetal bovine serum; for MCF7 (Human breast adenocarcinoma) 1:1 mixture of Dulbecco's Modified Eagle Medium (D-MEM) (high glucose) (Gibco BRL, Carlsbad, Calif., USA) and Nutrient Mixture F-12 Ham (Sigma, St. Louis, Mo., USA), penicillin (50 IU/ml)-streptomycin ([…]), 10% fetal bovine serum. Experiments were performed as described in Example 9. with the difference that the incubation time was 24 hours in this case. After the incubation period MTS test (3-(4,5-dimethylthiazol-2-yl)-5-(3-carboxymethoxyphenyl)-2-(4-sulfophenyl)-2H-tetrazolium) (Promega, Madison, Wis., USA) was performed as described above.

[2] = tested on: RVH human melanoma cell line; assay: cytotoxic effect on melanoma cell line, MTS assay, 48 hours; type: cell-based; conditions: 48 hours treatment, FIG. 4; for effect on RVH melanoma cells: even at 100 μM concentration
Protocol: RVH human melanoma cell line was cultured in Minimum Essential Medium Eagle (Sigma, St. Louis, Mo., USA), Na-piruvate, Glutamine, Non-essential amino acids, penicillin (50 IU/ml)-streptomycin ([…]), 10% fetal bovine serum at 37° C., in 5% CO2. Cells were trypsinized with trypsin/EDTA (Sigma-Aldrich, St. Louis, Mo.) on every second day and were passed into 60 or 100 mm plates. When the culture reached the required cell number (approx. 10^6) for the planned experiment 50.00 cell/well was plated into 24 well plates (Costar® 24 Well TC-Treated Microplates) and left overnight to adhere to the bottom of the well. Addition of the substance was performed the following way: next day the culture media was drawn from the adhered cells and media comprising compounds of the present invention in appropriate concentration and well mixed therein was pipetted (2 ml/well) onto the cells. The substance to be examined was diluted in 100% DMSO, this way an amount of DMSO corresponding to the highest concentration of the substance in a given assay were measured in the media of the control wells. After 48 hours of treatment live cells were detected by CellTiter® 96 Aqueous Non-radioactive Cell Proliferation Assay (Promega, Madison, Wis., USA) to determine the number of live cells in the treated and in the control samples.
MTS is converted to formazane in the living cells, which product is dissolved in the media, and its quantity/absorbance can be measured at 490 nm. […] Then, for the determination of the ratio of live cells 20 μl MTS and 1 μl PMS are added to 100 μl media. The enzyme reaction occurs at incubation at 37° C., 5% CO2 for 1 to 4 hours. Formazane produced by the cells is read on ELISA plate reader, from which the number of living cells can be obtained indirectly. Since the inventors performed the experiments in 24 well plates with 50.000 cell/well, the protocol had to be modified. After treatment of the cells for an appropriate time (type of compound, different concentrations), the incubation media (2 ml) containing the examined substance was removed, then 400 μl media containing reagents in the same concentration as given above (333.3 μl media, 66.6 μl MTS, and 3.3 μl PMS per well) was pipetted to the cells. To be able to use ELISA plate reader (Multiskan R C, Thermo Labsystems, Franklin, Mass., USA) 400 μl sample from each single well of the 24 well plate was pipetted into four wells of a 96 well plate (Micromethod plates 96 wells flat form) in 100 μl aliquots. That also helped to eliminate possible errors due to inconsistent pipetting. On each 24 well plate 4 wells were control samples. From these 3 times 100 μl was pipetted onto the 96 well plates, so, altogether 12 controls were provided on each 96 well plate. The remaining 4 wells were for background measurements with 100 μl media containing MTS and PMS as described above.

[3] = tested on: TNFα; assay: late phase (transcriptionally induced) TNFα secretion of macrophages, ELISA; type: cell-based, mice; conditions: preformed TNFα washed away after 4 hours, TNFα of next 4 hours; FIG. 3
Protocol: For the detection of late phase TNFα secretion the preformed TNFα, released after LPS induction of the macrophages, was washed away after 4 hours, and the amount of TNFα produced during the next 4 hours was determined by ELISA test. […] Results are depicted in FIG. 3.

[4] = tested on: Mycobacterium avis; assay: inhibition of Mycobacterium avis in THP-1 macrophage culture; type: cell-based; conditions: 36 mg/l, THP-1 human macrophage cells; FIG. 11
Protocol: In this experiment the effects of compound 3a were analyzed: the inhibition of Mycobacterium avis in macrophage culture was investigated. Human macrophage cells (THP-1) were infected by Mycobacterium avis under in vitro conditions, subsequently treated (compound 3a: 36 mg/l) and untreated cells were harvested after different periods of time and the number of the living Mycobacterium avis bacteria were determined.

[5] = tested on: RAW.264.7 matured mice macrophages; assay: MTS test of vitality / metabolic activity of the macrophages; type: cell-based
Protocol: In our experiments we investigated the early TNFα secretion of RAW.264.7 matured mice macrophages. This cell line stores large amount of preformed TNFα. […] Culture supernatant was collected and TNFα content was determined by R&D Duoset ELISA kit (detection limit<62.5 pg/ml). […] So the reduced TNFα level was due to inhibition of the release of preformed TNFα and not due to dying of the cells.
Effects of compound 3a and compound 3b on TNFα secretion and on NF-kappaB activation could have been based on cytotoxicity as well. To exclude that, we determined the metabolic activity of the cells, which is proportional to the cell number, by MTS test 8 hours after the treatment.

[6] = tested on: HepG2 (human hepatocellular carcinoma); assay: cytotoxic effect on hepatocellular carcinoma cell line, MTS test, 24 hours; type: cell-based; conditions: 24 hours incubation
Protocol: as §1

[7] = tested on: Rab GTPase proteins; assay: affinity chromatography of MCF-7 protein fraction with LC-MS/MS; type: binding, human; conditions: compound linked to Sepharose beads, 2 M NaCl eluate
Protocol: By using affinity chromatography we investigated which are the proteins that bind compound 5b of the invention. Compound 5b was linked to cyanobromide activated Sepharose (Amersham-Pharmacia, Sepharose 4B) beads in 6:4 DMF:water mixture for 16 hours at room temperature. 1 ml of the beads was washed with 50 ml 6:4 DMF:water mixture, and then with 50 ml 70% ethanol, then with PBS (0.01 M phosphate buffer, 0.0027 M KCl, 0.137 M NaCl, pH: 7.4). After washing the column 5 ml protein fraction of human MCF-7 breast carcinoma cells (10 million cells homogenized with Complete, Protease Inhibitor Cocktail Tablets, Roche Diagnostics GmbH) were applied onto the column. The column was washed with 20 ml 0.2 M NaCl—PBS solution, then with 15 ml 0.5 M NaCl—PBS solution and with 15 ml 0.8 M NaCl—PBS solution, then it was eluted by 2 ml 2 M NaCl—PBS. The eluate was analyzed by mass spectrometry (LC-MS/MS) to determine the proteins binding to compound 5b.
Mass spectrometry analysis was performed according to the protocol published at http://donatello.ucsf.edu/ingel.html at the time of drafting the patent application.
For the LC-MS/MS analysis 5 μl sample was injected. For the LC precolumn trap was applied: 5 min 20 μl 0.1% trifluoroacetic acid/water, then gradient elution for MS/MS analysis. Columns: Zorbax 300SB-C18, 5 μm, 5×0.3 mm; Zorbax 300SB-C18, 3.5 μm, 150×0.075 mm. […]

[8] = tested on: human leukemia cells (K562); assay: leukemia survival model, K562 cells i.v.; type: in vivo, CB17/scid mice; conditions: 100 mg/kg p.o., once a day five days per week for 3 weeks from day 4; FIG. 10
Protocol: 2×10^6 human leukemia cells (K562) from in vitro cultures were injected intravenously (i.v.) into partially narcotized (diethylether narcosis) adult male CB17/scid mice, born with immunodeficiency. After tumor cell inoculation animals were randomly assigned into two groups and their ears were marked. From the 4th day after the tumor cell inoculation mice were treated once a day five days per week for 3 weeks with compound 9a (100 mg/kg), per os (p.o.) by gavage. Control animals were treated with appropriate dilution of the carrier (DMSO) similarly to the treated group with similar frequency. Body weight changes were monitored once a week for each animal according to the ear marks. Evaluation of the effect of the compound was based on the survival of the animals. Results are shown on FIG. 10.

[9] = in the concentration range tested
[10] = already at 20 and 50 μM concentrations

CCNc1c(F)c(F)c(F)c2c1C(=O)N(c1c(C(C)C)cccc1C(C)C)C2=O [Compound 3a, 2-(2,6-diisopropylphenyl)-4-(ethylamino)-5,6,7-trifluoroisoindole-1,3-dione]
effect on MCF7 cells [1, 9]: weak effect | effect on RVH melanoma cells [2]: weak effect | late TNFα secretion of macrophages [3]: inhibited late TNFα secretion of macrophages in a concentration dependent way | number of divided (living) bacteria versus untreated group [4]: significantly smaller | vitality of the cells (MTS test) ([5]; 3 hours after the stimulation with LPS): no cell death was detected | metabolic activity of the cells (MTS test) ([5]; 8 hours after the treatment): not found to be toxic | effect on HepG2 cells [6, 9]: weak effect

CC(C)c1cccc(C(C)C)c1N1C(=O)c2c(F)c(F)c(F)c(NCc3cccnc3)c2C1=O [Compound 4a]
inhibition of MCF7 cells (cytotoxic effect) [1]: strongest inhibition | inhibition of RVH melanoma cells (cytotoxic effect) [2]: strongest inhibition | inhibition of HepG2 cells (cytotoxic effect) [6]: strongest inhibition

CC(C)c1cccc(C(C)C)c1N1C(=O)c2c(F)c(F)c(NCc3cccnc3)c(F)c2C1=O [Compound 4b]
effect on MCF7 cells [1, 10]: strong effect | inhibition of RVH melanoma cells (cytotoxic effect) [2]: strongest inhibition | effect on HepG2 cells [6, 10]: strong effect

CC(C)c1cccc(C(C)C)c1N1C(=O)c2c(F)c(F)c(F)c(NCCN)c2C1=O [Compound 5a, 2-(2,6-diisopropylphenyl)-4-(2-amino-ethylamino)-5,6,7-trifluoroisoindole-1,3-dione]
effect on MCF7 cells [1, 10]: strong effect | inhibition of RVH melanoma cells (cytotoxic effect) [2]: strongest inhibition | effect on HepG2 cells [6, 9]: weak effect

CC(C)c1cccc(C(C)C)c1N1C(=O)c2c(F)c(F)c(NCCN)c(F)c2C1=O [Compound 5b, 2-(2,6-diisopropylphenyl)-5-(2-amino-ethylamino)-4,6,7-trifluoroisoindole-1,3-dione]
effect on RVH melanoma cells [2]: weak effect | proteins binding to the compound [7]: interactions with Rab GTPase proteins were identified

CC(C)c1cccc(C(C)C)c1N1C(=O)c2c(F)c(F)c(F)c(NCC(F)(F)F)c2C1=O [Compound 6a, 2-(2,6-diisopropylphenyl)-4,5,6-trifluoro-7-(2,2,2-trifluoroethylamino)isoindole-1,3-dione]
inhibition of MCF7 cells (cytotoxic effect) [1]: strongest inhibition | inhibition of RVH melanoma cells (cytotoxic effect) [2]: strongest inhibition | inhibition of HepG2 cells (cytotoxic effect) [6]: strongest inhibition

CC(C)c1cccc(C(C)C)c1N1C(=O)c2c(F)c(F)c(F)c(NCCCN3CCOCC3)c2C1=O [Compound 7a, 2-(2,6-diisopropylphenyl)-4-(3-morpholino-4-yl-propylamino)-5,6,7-trifluoroisoindole-1,3-dione]
inhibition of MCF7 cells (cytotoxic effect) [1]: strongest inhibition | inhibition of HepG2 cells (cytotoxic effect) [6]: strongest inhibition

CC(C)c1cccc(C(C)C)c1N1C(=O)c2c(F)c(F)c(NCCCN3CCOCC3)c(F)c2C1=O [Compound 7b, 2-(2,6-diisopropylphenyl)-5-(3-morpholino-4-yl-propylamino)-4,6,7-trifluoroisoindole-1,3-dione]
effect on MCF7 cells [1, 10]: strong effect | inhibition of RVH melanoma cells (cytotoxic effect) [2]: strongest inhibition | inhibition of HepG2 cells (cytotoxic effect) [6]: strongest inhibition | effect on HepG2 cells [6, 10]: strong effect

CC(C)c1cccc(C(C)C)c1N1C(=O)c2c(F)c(F)c(F)c(NC3CCCC3)c2C1=O [Compound 9a, 2-(2,6-diisopropylphenyl)-4-(cyclopentylamino)-5,6,7-trifluoroisoindoline-1,3-dione]
survival of the animals [8]: significant increase of the survival
